Where two headings read alike, the source gives them in different places.
Assays:
Assay in all cases: TGFα-shedding assay-based GPCR screening with chimeric Gα subunit proteins
Format in all cases: cell-based
[1] = biological target: 348 GPCRs (Homo sapiens, UniProt P30872); details: 10µM, Favipiravir 100μM
[2] = biological target: T1, 348 GPCRs (Homo sapiens, UniProt P25089); details: 10µM, Favipiravir 100μM
T1 construct: expressed in transfected cells; host or cells: HEK293A
T1 sequence (P25089 1-353): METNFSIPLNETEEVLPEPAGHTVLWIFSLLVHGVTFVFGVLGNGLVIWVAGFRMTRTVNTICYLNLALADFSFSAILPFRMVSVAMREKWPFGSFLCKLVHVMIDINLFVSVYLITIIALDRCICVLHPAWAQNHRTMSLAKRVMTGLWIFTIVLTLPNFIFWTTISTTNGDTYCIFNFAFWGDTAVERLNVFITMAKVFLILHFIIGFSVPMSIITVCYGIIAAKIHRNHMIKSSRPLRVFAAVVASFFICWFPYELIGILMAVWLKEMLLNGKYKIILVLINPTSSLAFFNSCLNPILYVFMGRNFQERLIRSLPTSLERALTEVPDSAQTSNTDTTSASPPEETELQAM

[3] = biological target: T2, 348 GPCRs (Homo sapiens, UniProt Q8IZP9)
T2 construct: expressed in transfected cells; host or cells: HEK293A

[4] = biological target: T3, 348 GPCRs (Homo sapiens, UniProt P47890); details: 10µM, Favipiravir 100μM
T3 construct: expressed in transfected cells; host or cells: HEK293A
T3 sequence (P47890 1-313): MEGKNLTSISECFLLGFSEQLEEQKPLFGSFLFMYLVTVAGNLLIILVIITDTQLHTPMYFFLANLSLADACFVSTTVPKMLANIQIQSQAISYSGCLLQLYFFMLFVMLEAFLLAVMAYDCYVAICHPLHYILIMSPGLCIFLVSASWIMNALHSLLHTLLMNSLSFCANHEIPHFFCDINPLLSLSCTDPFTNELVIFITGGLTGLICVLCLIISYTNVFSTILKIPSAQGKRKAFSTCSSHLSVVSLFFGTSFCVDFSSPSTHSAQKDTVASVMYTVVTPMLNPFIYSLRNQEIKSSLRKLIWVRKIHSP

[5] = biological target: T4, 348 GPCRs (Homo sapiens, UniProt Q9NS67); details: 10µM, Favipiravir 100μM
T4 construct: expressed in transfected cells; host or cells: HEK293A

[6] = biological target: T5, 348 GPCRs (Homo sapiens, UniProt P48544); details: 10µM, Favipiravir 100μM
T5 construct: expressed in transfected cells; host or cells: HEK293A
T5 sequence (P48544 1-419): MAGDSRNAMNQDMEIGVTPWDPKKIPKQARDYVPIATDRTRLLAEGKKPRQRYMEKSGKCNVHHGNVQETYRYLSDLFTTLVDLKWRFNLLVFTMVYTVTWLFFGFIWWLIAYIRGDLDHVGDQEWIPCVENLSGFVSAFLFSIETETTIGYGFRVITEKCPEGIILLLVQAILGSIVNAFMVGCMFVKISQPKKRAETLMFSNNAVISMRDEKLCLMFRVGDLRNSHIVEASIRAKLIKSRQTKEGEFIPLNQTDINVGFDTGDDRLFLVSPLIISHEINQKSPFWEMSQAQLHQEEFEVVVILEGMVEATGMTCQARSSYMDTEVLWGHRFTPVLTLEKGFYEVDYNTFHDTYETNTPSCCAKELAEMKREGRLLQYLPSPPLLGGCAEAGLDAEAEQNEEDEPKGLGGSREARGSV

[7] = biological target: T6, 348 GPCRs (Homo sapiens, UniProt Q9NYV8); details: 10µM, Favipiravir 100μM
T6 construct: expressed in transfected cells; host or cells: HEK293A
T6 sequence (Q9NYV8 1-317): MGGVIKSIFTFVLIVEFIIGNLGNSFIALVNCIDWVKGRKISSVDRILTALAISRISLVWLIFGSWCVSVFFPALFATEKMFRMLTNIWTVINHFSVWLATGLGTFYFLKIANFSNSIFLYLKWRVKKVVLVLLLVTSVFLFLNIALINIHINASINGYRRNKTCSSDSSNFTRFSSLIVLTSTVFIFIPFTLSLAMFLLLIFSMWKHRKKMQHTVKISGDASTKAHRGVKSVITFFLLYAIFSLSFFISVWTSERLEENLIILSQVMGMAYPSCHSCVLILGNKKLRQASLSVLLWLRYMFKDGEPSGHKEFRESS

[8] = biological target: T7, 348 GPCRs (Homo sapiens, UniProt P32246); details: 10µM, Favipiravir 100μM
T7 construct: expressed in transfected cells; host or cells: HEK293A
T7 sequence (P32246 1-355): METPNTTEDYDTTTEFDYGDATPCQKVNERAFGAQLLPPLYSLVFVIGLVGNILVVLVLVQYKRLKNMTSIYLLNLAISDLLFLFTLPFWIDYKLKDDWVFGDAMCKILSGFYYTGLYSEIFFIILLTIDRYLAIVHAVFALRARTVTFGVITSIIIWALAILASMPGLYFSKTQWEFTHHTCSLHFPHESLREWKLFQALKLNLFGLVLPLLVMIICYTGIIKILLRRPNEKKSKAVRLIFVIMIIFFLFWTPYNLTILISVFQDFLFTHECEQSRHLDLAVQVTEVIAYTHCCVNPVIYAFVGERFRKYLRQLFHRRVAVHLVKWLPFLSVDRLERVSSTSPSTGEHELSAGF

[9] = read-out: % GPCR activation compared to TPA, SSTR1 (somatostatin receptor 1)
[10] = read-out: % GPCR activation compared to TPA, FPR3 (formyl peptide receptor 3)
[11] = read-out: % GPCR activation compared to TPA, GPCR GPR64 (G protein-coupled receptor 64)
[12] = read-out: % GPCR activation compared to TPA, OR1G1 (olfactory receptor, family 1, subfamily G, member 1)
[13] = read-out: % GPCR activation compared to TPA, GPR27 (G Protein-Coupled Receptor 27)
[14] = read-out: % GPCR activation compared to TPA, KCNJ5 (potassium inwardly rectifying channel, subfamily J, member 5)
[15] = read-out: % GPCR activation compared to TPA, TAS2R14 (taste receptor, type 2, member 14)
[16] = read-out: % GPCR activation compared to TPA, CCR1 (chemokine (C-C motif) receptor 1)
[17] = SSTR1 (somatostatin receptor 1), read-out: % GPCR activation compared to TPA
[18] = FPR3 (formyl peptide receptor 3), read-out: % GPCR activation compared to TPA
[19] = GPCR GPR64 (G protein-coupled receptor 64), read-out: % GPCR activation compared to TPA
[20] = OR1G1 (olfactory receptor, family 1, subfamily G, member 1), read-out: % GPCR activation compared to TPA
[21] = GPR27 (G Protein-Coupled Receptor 27), read-out: % GPCR activation compared to TPA
[22] = KCNJ5 (potassium inwardly rectifying channel, subfamily J, member 5), read-out: % GPCR activation compared to TPA
[23] = TAS2R14 (taste receptor, type 2, member 14), read-out: % GPCR activation compared to TPA
[24] = CCR1 (chemokine (C-C motif) receptor 1), read-out: % GPCR activation compared to TPA

T4 sequence (Q9NS67 whole entry): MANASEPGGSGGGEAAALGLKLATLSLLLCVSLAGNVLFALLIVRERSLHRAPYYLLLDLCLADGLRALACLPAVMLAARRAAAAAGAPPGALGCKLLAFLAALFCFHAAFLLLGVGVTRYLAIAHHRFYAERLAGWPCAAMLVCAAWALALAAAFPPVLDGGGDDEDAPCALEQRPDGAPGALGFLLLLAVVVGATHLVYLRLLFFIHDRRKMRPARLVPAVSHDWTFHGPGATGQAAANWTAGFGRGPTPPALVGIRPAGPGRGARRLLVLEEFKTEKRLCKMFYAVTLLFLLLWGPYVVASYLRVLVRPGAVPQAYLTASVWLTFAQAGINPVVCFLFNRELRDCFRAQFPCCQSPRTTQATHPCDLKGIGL
Chain of 348 GPCRs (Homo sapiens, UniProt P30872) (P30872 whole entry): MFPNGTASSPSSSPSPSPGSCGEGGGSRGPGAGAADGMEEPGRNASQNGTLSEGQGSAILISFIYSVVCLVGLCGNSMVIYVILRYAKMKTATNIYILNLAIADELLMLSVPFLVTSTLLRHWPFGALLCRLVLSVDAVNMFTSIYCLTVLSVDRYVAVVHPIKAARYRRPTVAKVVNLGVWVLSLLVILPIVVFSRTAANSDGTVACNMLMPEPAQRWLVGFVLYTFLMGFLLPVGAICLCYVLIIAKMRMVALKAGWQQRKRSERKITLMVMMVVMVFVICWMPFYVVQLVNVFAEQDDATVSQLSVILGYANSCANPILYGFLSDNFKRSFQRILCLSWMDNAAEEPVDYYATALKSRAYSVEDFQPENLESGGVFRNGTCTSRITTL
T2 sequence (Q8IZP9 38-1017): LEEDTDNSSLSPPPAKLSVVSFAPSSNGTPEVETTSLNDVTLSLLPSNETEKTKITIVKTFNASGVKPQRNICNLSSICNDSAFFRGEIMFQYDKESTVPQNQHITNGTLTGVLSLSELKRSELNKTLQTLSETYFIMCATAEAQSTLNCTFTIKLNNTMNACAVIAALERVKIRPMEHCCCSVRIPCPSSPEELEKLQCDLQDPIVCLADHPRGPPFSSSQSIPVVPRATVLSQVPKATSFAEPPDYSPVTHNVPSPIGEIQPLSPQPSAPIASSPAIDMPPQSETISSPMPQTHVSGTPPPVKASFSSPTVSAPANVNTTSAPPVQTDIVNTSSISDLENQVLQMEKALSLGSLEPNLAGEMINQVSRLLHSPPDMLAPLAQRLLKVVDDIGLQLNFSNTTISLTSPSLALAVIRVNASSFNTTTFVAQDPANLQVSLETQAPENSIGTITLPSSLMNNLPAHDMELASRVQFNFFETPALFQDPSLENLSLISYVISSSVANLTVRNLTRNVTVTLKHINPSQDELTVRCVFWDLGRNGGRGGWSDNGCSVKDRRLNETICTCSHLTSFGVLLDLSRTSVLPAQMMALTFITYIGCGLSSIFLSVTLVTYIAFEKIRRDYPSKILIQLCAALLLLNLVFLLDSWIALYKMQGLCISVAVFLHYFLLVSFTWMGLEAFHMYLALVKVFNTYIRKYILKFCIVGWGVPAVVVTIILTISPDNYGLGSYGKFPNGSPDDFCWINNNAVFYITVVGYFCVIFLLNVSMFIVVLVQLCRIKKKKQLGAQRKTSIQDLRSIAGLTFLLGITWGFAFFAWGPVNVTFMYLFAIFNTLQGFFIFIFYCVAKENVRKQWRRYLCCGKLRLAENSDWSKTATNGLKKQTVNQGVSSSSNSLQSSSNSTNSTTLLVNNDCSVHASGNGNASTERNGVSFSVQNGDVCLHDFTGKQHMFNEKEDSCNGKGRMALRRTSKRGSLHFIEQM

| Compound | activation at 10 µM [1, 17] [%] | activation at 100 µM [2, 18] [%] | activation at 10 µM [3, 19] [%] | activation at 10 µM [4, 20] [%] | activation at 100 µM [5, 21] [%] | activation at 100 µM [6, 22] [%] | activation at 100 µM [7, 23] [%] | activation at 100 µM [8, 24] [%] | activation at 100 µM ([3]; GPCR GPR64 (G protein-coupled receptor 64), 100μM, read-out: % GPCR activation compared to TPA) [%] | activation at 10 µM [1, 9] [%] | activation at 100 µM [2, 10] [%] | activation at 10 µM [3, 11] [%] | activation at 10 µM [4, 12] [%] | activation at 100 µM [5, 13] [%] | activation at 100 µM [6, 14] [%] | activation at 100 µM [7, 15] [%] | activation at 100 µM [8, 16] [%] |
| --- | --- | --- | --- | --- | --- | --- | --- | --- | --- | --- | --- | --- | --- | --- | --- | --- | --- |
| CC(C)OC(=O)[C@H](C)N[P@](=O)(OC[C@H]1O[C@@H](n2ccc(=O)[nH]c2=O)[C@](C)(F)[C@@H]1O)Oc1ccccc1 [sofosbuvir] |  |  |  |  |  |  |  |  |  | -0.638 | -0.773 | -7.7 | -2.98 | 1.94 | -2.66 | -1.26 | -1.9 |
| NC(=O)c1nc(F)cnc1O [favipiravir, 6-fluoro-3-hydroxy-2-pyrazinecarboxamide] | 0.537 | 0.4 |  | 0.965 | -0.296 | -1.78 | 0.627 | 5.15 | -2.31 |  |  |  |  |  |  |  |  |
| CCC(CC)COC(=O)[C@H](C)N[P@](=O)(OC[C@H]1O[C@@](C#N)(c2ccc3c(N)ncnn23)[C@H](O)[C@@H]1O)Oc1ccccc1 [remdesivir] |  |  |  |  |  |  |  |  |  | 2.79 | 3.79 | -4.08 | -1.69 | 0.0845 | 1.55 | -1.51 | 2.29 |

Now from value to molecule, other results behind:

| activation at 10 µM [1, 17] [%] | activation at 100 µM [2, 18] [%] | activation at 10 µM [3, 19] [%] | activation at 10 µM [4, 20] [%] | activation at 100 µM [5, 21] [%] | activation at 100 µM [6, 22] [%] | activation at 100 µM [7, 23] [%] | activation at 100 µM [8, 24] [%] | activation at 100 µM ([3]; GPCR GPR64 (G protein-coupled receptor 64), 100μM, read-out: % GPCR activation compared to TPA) [%] | Compound | activation at 10 µM [1, 9] [%] | activation at 100 µM [2, 10] [%] | activation at 10 µM [3, 11] [%] | activation at 10 µM [4, 12] [%] | activation at 100 µM [5, 13] [%] | activation at 100 µM [6, 14] [%] | activation at 100 µM [7, 15] [%] | activation at 100 µM [8, 16] [%] |
| --- | --- | --- | --- | --- | --- | --- | --- | --- | --- | --- | --- | --- | --- | --- | --- | --- | --- |
| 0.451 | -1.95 | -5.62 | -3.31 | -0.612 | -0.841 | -1.82 | -1.8 |  | CC(C)C(=O)OC[C@H]1O[C@@H](n2ccc(NO)nc2=O)[C@H](O)[C@@H]1O [molnupiravir] |  |  |  |  |  |  |  |  |
| -0.554 | 2.5 | -4.34 | -1.68 | 1.65 | 1.89 | -2.2 | 4.02 |  | N#C[C@@]1(c2ccc3c(N)ncnn23)O[C@H](CO)[C@@H](O)[C@H]1O [GS441524] |  |  |  |  |  |  |  |  |
